Reference: US20160015725A1, “METHODS OF CONTROLLING TUMOR BIOENERGETICS NETWORKS” (THE WISTAR INSTITUTE OF ANATOMY AND BIOLOGY, priority 2012, published 2016)

What was measured:
[1] = tested on: BRAF V600E melanoma cells; assay: Melanoma cell viability by MTT, BRAF V600E; type: cell-based, human
Procedure: (§1) Various cell types were seeded in triplicate onto 96-well plates at 4×10^3 cells/well, treated with vehicle, Gamitrinib or 17-AAG (0-20 μM) for 12 h, and analyzed for changes in metabolic activity by an MTT assay. For determination of apoptosis, LN229 cells ([…]) were labeled for annexin V and propidium iodide (PI) (BD Biosciences), and analyzed by multiparametric flow cytometry (BD).

BRAF WT melanoma cells = assay: Melanoma cell viability by MTT, BRAF WT; type: cell-based, human
Procedure: as §1

LN229 cells = assay: Extracellular lactate; type: cell-based, human; conditions: tumor cells
Procedure: Glucose concentrations in cell culture media were determined using a Glucose kit (Sigma-Aldrich). Briefly, 2×10^6 cells were seeded in 10 cm2 tissue culture dishes for 48 h, mixed with DMEM in the presence of Gamitrinib or 17-AAG (0-20 μM) for additional 4 h, and 200 μl aliquots of culture medium were incubated with 1 ml assay mixture, containing 1.5 mM NAD, 1 mM ATP, 1.0 U/ml Hexokinase, and 1.0 U/ml G6PDH. The glucose concentration under the various conditions was determined by measuring the amount of reduced NAD to NADH by G6PDH, and quantified spectrophotometrically at 340 nm wavelength. Extracellular lactate was measured by a colorometric assay kit (Abcam). Culture media from LN229 cells was replaced with DMEM containing vehicle (DMSO) or Gamitrinib (5 μM) for 5 h. Changes in lactate concentrations were measured by analysis of lactate-dependent conversion of NADP to NADPH in the presence of excess lactate dehydrogenase (LDH), and quantified by absorbance at 450 nm. All assays were performed at 25° C. under conditions of linear lactate-limited NADPH formation.

hexokinase = assay: Hexokinase activity in mitochondrial fractions of treated cells; type: cell-based, human; conditions: LN229 mitochondrial fractions, 5 h
Procedure: HK activity in LN229 cells was measured as the total glucosephosphorylating activity using a standard G6PDH-coupled assay kit (BioVision). Mitochondria isolated from Gamitrinib- or 17-AAG-treated LN229 cells, or cultures transfected with various siRNAs were homogenized in cold PBS, followed by centrifugation at 1000 g for 10 min at 4° C. HK activity was determined by analysis of G6P-dependent conversion of NADP to NADPH in the presence of excess […] in the presence of 2 mM glucose, and quantification of absorbance at 450 nm. All assays were performed at 25° C. under conditions of linear HK-limited NADPH formation.

[2] = tested on: TRAMP (Transgenic Adenocarcinoma of the Mouse Prostate) mice; conditions: cited from earlier work
[3] = tested on: FF2508 or MRC5 normal primary human fibroblasts; assay: ATP production in normal fibroblasts; type: cell-based
Procedure: (§2) Intracellular ATP concentrations were measured by the luciferin—luciferase method using an ATP measuring kit (Biochain). The ATP concentration in each extract was measured with a microplate luminometer (Beckman Coulter) against standard ATP solutions used as reference. In some experiments, PC3 or LN229 cells were preincubated with sodium pyruvate for 7 h in the presence of vehicle or Gamitrinib before determination of ATP production.

NIH3T3 fibroblasts = assay: ATP production and AMPK/mTORC1 phosphorylation in non-transformed cells; type: cell-based
Procedure: (§3) For Western blotting, protein lysates were prepared from the different cell types in RIPA Buffer (150 mM NaCl, 1.0% Triton X-100, 0.5% sodium deoxycholate, 0.1% SDS, 50 mM Tris, pH 8.0) containing EDTA-free Protease Inhibitor Cocktail (Roche) and Phosphatase Inhibitor Cocktail 2 and 3 (Sigma Aldrich). Equal amounts of protein lysates were separated by SDS gel electrophoresis, transferred to PVDF membranes and incubated with primary antibodies of various specificities. Protein bands were detected by chemiluminescence.
as §2

hexokinase-II (HK-II) = assay: Subcellular fractionation and Western blotting of hexokinases; type: cell-based, human; conditions: LN229, 5 h
Procedure: Mitochondrial fractions were isolated from Gamitrinib treated LN229 cells (0-20 μM for 5 h) using an ApoAlert™ cell fractionation kit (CLONTECH). Briefly, LN229 cells were mechanically disrupted by 60 strokes with a Dounce homogenizer in isolation buffer containing 1 mM DTT plus protease inhibitor cocktail. Cell debris was removed by centrifugation at 700 g for 10 min. The supernatant was further centrifuged at 10,000 g for 25 min, and supernantants or mitochondrial pellets were processed for further analysis.
as §3

mTORC1 = mTORC1 signaling in tumor cells, Western blotting; type: cell-based, human

CO[C@H]1/C=C\C=C(/C)C(=O)NC2=CC(=O)C(NCCCCCC[P+](c3ccccc3)(c3ccccc3)c3ccccc3)=C(C[C@@H](C)C[C@H](OC)[C@H](O)[C@@H](C)/C=C(\C)[C@@H]1OC(N)=O)C2=O [Gamitrinib]
IC50 [1]: 1.95 ± 0.21 µM
IC50 (BRAF WT melanoma cells): 6 ± 1.4 µM
extracellular lactate levels (LN229 cells): reduced
hexokinase activity (hexokinase): a decrease in hexokinase activity
residual prostatic adenocarcinoma at end of experiment ([2]; 5 mg/kg i.p., 3 d on/2 d off): only one animal displayed a small residual area of prostatic adenocarcinoma
Prostatic Intraepithelial Neoplasia (PIN) ([2]; systemic treatment): did not affect Prostatic Intraepithelial Neoplasia (PIN)
primary and metastatic prostate cancer growth ([2]; systemic treatment): inhibited primary and metastatic prostate cancer growth
ATP production [3]: did not change ATP production
ATP production, AMPK or mTORC1 phosphorylation (NIH3T3 fibroblasts): did not affect ATP production, or AMPK or mTORC1 phosphorylation
HK-II localization (mitochondria vs cytosol) (hexokinase-II (HK-II)): concentration-dependent release of hexokinase-II (HKII) from mitochondria
phosphorylation of mTOR, 4EBP1 and p70S6 (mTORC1) (mTORC1): concentration dependent suppression of phosphorylation of mTOR, and its downstream kinases 4EBP1 and p70S6
